Experimental data published in PubChem BioAssay AID2060508 (Molecular Pharmacology Branch, DTP, NCI, 2025).

Tested on: 454973-116-R2-J3-PDC spheroids, viability, % test/control
Test: Anticancer human tumor 454973-116-R2-J3-PDC patient-derived pancreatic carcinoma cell line growth inhibition [GQUAD]
Conditions: spheroids with HUVEC and MSC; for IC50: curve of first compound; for viability, T/C: stronger effect = lower value
Summary of the method: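 Viability of tumor cells grown as complex spheroids with endothelial and stromal cells, exposed to drug combinations. Top concentration at or near clinical Cmax (else 10 microM), diluted in half-log increments.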

[1] = second compound 0.0316 µM, first compound 0.0316 µM
[2] = second compound 0.0316 µM, first compound 0.1 µM
[3] = second compound 0.0316 µM, first compound 0.316 µM
[4] = second compound 0.0316 µM, first compound 1 µM
[5] = second compound 0.0316 µM, first compound 3.16 µM
[6] = second compound 0.0316 µM, first compound 10 µM
[7] = second compound 0.1 µM, first compound 0.0316 µM
[8] = second compound 0.1 µM, first compound 0.1 µM
[9] = second compound 0.1 µM, first compound 0.316 µM
[10] = second compound 0.1 µM, first compound 1 µM
[11] = second compound 0.1 µM, first compound 3.16 µM
[12] = second compound 0.1 µM, first compound 10 µM
[13] = second compound 0.316 µM, first compound 0.0316 µM
[14] = second compound 0.316 µM, first compound 0.1 µM
[15] = second compound 0.316 µM, first compound 0.316 µM
[16] = second compound 0.316 µM, first compound 1 µM
[17] = second compound 0.316 µM, first compound 3.16 µM
[18] = second compound 0.316 µM, first compound 10 µM
[19] = second compound 1 µM, first compound 0.0316 µM
[20] = second compound 1 µM, first compound 0.1 µM
[21] = second compound 1 µM, first compound 0.316 µM
[22] = second compound 1 µM, first compound 1 µM
[23] = second compound 1 µM, first compound 3.16 µM
[24] = second compound 1 µM, first compound 10 µM
[25] = second compound 3.16 µM, first compound 0.0316 µM
[26] = second compound 3.16 µM, first compound 0.1 µM
[27] = second compound 3.16 µM, first compound 0.316 µM
[28] = second compound 3.16 µM, first compound 1 µM
[29] = second compound 3.16 µM, first compound 3.16 µM
[30] = second compound 3.16 µM, first compound 10 µM
[31] = second compound 10 µM, first compound 0.0316 µM
[32] = second compound 10 µM, first compound 0.1 µM
[33] = second compound 10 µM, first compound 0.316 µM
[34] = second compound 10 µM, first compound 1 µM
[35] = second compound 10 µM, first compound 3.16 µM
[36] = second compound 10 µM, first compound 10 µM
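Further: spheroids exposed to compounds for seven days.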
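Wherever viability, T/C is given: 100% = DMSO vehicle control viability.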

Cc1cccc(N(C)C(=O)C2C(O)CCN2c2nc(C)cc(C(F)(F)F)c2C#N)c1 (stereo unspecified) + Cc1cnc(CNC(=O)c2c(=O)c3ccc(N4CCCN(C)CC4)nc3n3c2sc2ccccc23)cn1
IC50 (second compound 0.0316 µM): > 10 µM | IC50 (second compound 0.1 µM): > 10 µM | IC50 (second compound 0.316 µM): > 10 µM | IC50 (second compound 1 µM): > 10 µM | IC50 (second compound 3.16 µM): > 10 µM | IC50 (second compound 10 µM): < 0.0316 µM | viability, T/C [1]: 103% | viability, T/C [2]: 96.8% | viability, T/C [3]: 107% | viability, T/C [4]: 87.5% | viability, T/C [5]: 108% | viability, T/C [6]: 93.4% | viability, T/C [7]: 88.2% | viability, T/C [8]: 74.3% | viability, T/C [9]: 71.9% | viability, T/C [10]: 68.7% | viability, T/C [11]: 70.2% | viability, T/C [12]: 69.9% | viability, T/C [13]: 74.5% | viability, T/C [14]: 71.5% | viability, T/C [15]: 71.3% | viability, T/C [16]: 67.6% | viability, T/C [17]: 70.8% | viability, T/C [18]: 66.1% | viability, T/C [19]: 71.9% | viability, T/C [20]: 65.5% | viability, T/C [21]: 61.2% | viability, T/C [22]: 65.2% | viability, T/C [23]: 65% | viability, T/C [24]: 70% | viability, T/C [25]: 64.2% | viability, T/C [26]: 59.4% | viability, T/C [27]: 62.1% | viability, T/C [28]: 65.3% | viability, T/C [29]: 58.2% | viability, T/C [30]: 68.4% | viability, T/C [31]: 0.75% | viability, T/C [32]: 16.9% | viability, T/C [33]: 51.1% | viability, T/C [34]: 34.8% | viability, T/C [35]: 0.59% | viability, T/C [36]: 0.31%

Nc1ccn(C2OC(CO)C(O)C2(F)F)c(=O)n1 (stereo unspecified) + Cc1[nH]c2ccc(F)cc2c1-c1nc2c3cccnc3c3ncccc3c2[nH]1
IC50 (second compound 0.0316 µM): < 0.0316 µM | IC50 (second compound 0.1 µM): < 0.0316 µM | IC50 (second compound 0.316 µM): < 0.0316 µM | IC50 (second compound 1 µM): < 0.0316 µM | IC50 (second compound 3.16 µM): < 0.0316 µM | IC50 (second compound 10 µM): < 0.0316 µM | viability, T/C [1]: 20.1% | viability, T/C [2]: 13.8% | viability, T/C [3]: 17.1% | viability, T/C [4]: 17.2% | viability, T/C [5]: 17.2% | viability, T/C [6]: 15.5% | viability, T/C [7]: 19.7% | viability, T/C [8]: 13.9% | viability, T/C [9]: 15.5% | viability, T/C [10]: 13.7% | viability, T/C [11]: 17.3% | viability, T/C [12]: 14.8% | viability, T/C [13]: 15.3% | viability, T/C [14]: 15.8% | viability, T/C [15]: 17.7% | viability, T/C [16]: 14.5% | viability, T/C [17]: 16.9% | viability, T/C [18]: 15.8% | viability, T/C [19]: 19% | viability, T/C [20]: 19.2% | viability, T/C [21]: 16% | viability, T/C [22]: 20.1% | viability, T/C [23]: 14.2% | viability, T/C [24]: 17.2% | viability, T/C [25]: 16.1% | viability, T/C [26]: 15.6% | viability, T/C [27]: 17.8% | viability, T/C [28]: 17.4% | viability, T/C [29]: 19.1% | viability, T/C [30]: 16.4% | viability, T/C [31]: 17.5% | viability, T/C [32]: 17.6% | viability, T/C [33]: 17% | viability, T/C [34]: 17% | viability, T/C [35]: 13.8% | viability, T/C [36]: 16.6%

Cc1cccc(N(C)C(=O)C2C(O)CCN2c2nc(C)cc(C(F)(F)F)c2C#N)c1 (stereo unspecified) + CN(C)c1ccc(Nc2c3ccc(NC(=O)CCN4CCCC4)cc3nc3cc(NC(=O)CCN4CCCC4)ccc23)cc1
IC50 (second compound 0.0316 µM): > 10 µM | IC50 (second compound 0.1 µM): > 10 µM | IC50 (second compound 0.316 µM): > 10 µM | IC50 (second compound 1 µM): > 10 µM | IC50 (second compound 3.16 µM): > 10 µM | IC50 (second compound 10 µM): > 10 µM | viability, T/C [1]: 106% | viability, T/C [2]: 102% | viability, T/C [3]: 103% | viability, T/C [4]: 98.1% | viability, T/C [5]: 109% | viability, T/C [6]: 100% | viability, T/C [7]: 102% | viability, T/C [8]: 106% | viability, T/C [9]: 98.6% | viability, T/C [10]: 98% | viability, T/C [11]: 92.6% | viability, T/C [12]: 105% | viability, T/C [13]: 102% | viability, T/C [14]: 92.9% | viability, T/C [15]: 97.7% | viability, T/C [16]: 103% | viability, T/C [17]: 93.9% | viability, T/C [18]: 93.8% | viability, T/C [19]: 93.4% | viability, T/C [20]: 99.8% | viability, T/C [21]: 92% | viability, T/C [22]: 77.8% | viability, T/C [23]: 92% | viability, T/C [24]: 100% | viability, T/C [25]: 92.5% | viability, T/C [26]: 90% | viability, T/C [27]: 85% | viability, T/C [28]: 70.4% | viability, T/C [29]: 86.1% | viability, T/C [30]: 84.4% | viability, T/C [31]: 74% | viability, T/C [32]: 74.7% | viability, T/C [33]: 60.5% | viability, T/C [34]: 72.4% | viability, T/C [35]: 74.5% | viability, T/C [36]: 65.1%
